Source: the NIST ThermoML archive (doi:10.1016/j.jct.2014.08.023)
Numbers after ± are expanded uncertainties.

Details: Liquid, Vibrating tube method

CC(C)OC(C)C [diisopropyl ether]
mass density [kg/m3]
Details | 293.15 K | 298.15 K | 313.15 K | 333.15 K | 353.19 K | 373.24 K | 393.29 K
100 kPa | 723.5 ± 0.7 | 718.3 ± 0.7 | 702.4 ± 0.7 | 680.4 ± 0.7 | – | – | –
1000 kPa | 724.3 ± 0.7 | 719.5 ± 0.7 | 703.7 ± 0.7 | 682 ± 0.7 | 659.5 ± 0.7 | 635.5 ± 0.7 | 609.5 ± 0.7
5000 kPa | 729.1 ± 0.7 | 724.5 ± 0.7 | 709.3 ± 0.7 | 688.8 ± 0.7 | 667.5 ± 0.7 | 645.5 ± 0.7 | 622.1 ± 0.8
10000 kPa | 734.5 ± 0.7 | 730.2 ± 0.7 | 715.7 ± 0.7 | 696.3 ± 0.8 | 676.4 ± 0.8 | 656.1 ± 0.8 | 634.9 ± 0.8
15000 kPa | 739.6 ± 0.8 | 735.6 ± 0.8 | 721.6 ± 0.8 | 703.1 ± 0.8 | 684.4 ± 0.8 | 665.3 ± 0.8 | 645.7 ± 0.8
20000 kPa | 744.5 ± 0.8 | 740.5 ± 0.8 | 727.1 ± 0.8 | 709.3 ± 0.8 | 691.5 ± 0.8 | 673.4 ± 0.8 | 655.1 ± 0.8
25000 kPa | 749 ± 0.8 | 745.2 ± 0.8 | 732 ± 0.8 | 715 ± 0.8 | 698 ± 0.8 | 680.8 ± 0.8 | 663.4 ± 0.8
30000 kPa | 753.3 ± 0.8 | 749.6 ± 0.8 | 737.1 ± 0.8 | 720.4 ± 0.8 | 704 ± 0.8 | 687.6 ± 0.9 | 671 ± 0.9
35000 kPa | 757.4 ± 0.8 | 753.7 ± 0.8 | 741.5 ± 0.8 | 725.5 ± 0.9 | 709.6 ± 0.9 | 693.8 ± 0.9 | 677.9 ± 0.9
40000 kPa | 761.3 ± 0.8 | 757.7 ± 0.9 | 745.8 ± 0.9 | 730.2 ± 0.9 | 714.8 ± 0.9 | 699.6 ± 0.9 | 684.3 ± 0.9
45000 kPa | 765 ± 0.9 | 761.6 ± 0.9 | 749.9 ± 0.9 | 734.7 ± 0.9 | 719.7 ± 0.9 | 705 ± 0.9 | 690.2 ± 1
50000 kPa | 768.6 ± 0.9 | 765.2 ± 0.9 | 753.8 ± 0.9 | 739 ± 0.9 | 724.5 ± 0.9 | 710.1 ± 1 | 695.7 ± 1
55000 kPa | 772.1 ± 0.9 | 768.7 ± 0.9 | 757.6 ± 0.9 | 743.1 ± 1 | 728.9 ± 1 | 714.9 ± 1 | 701 ± 1
60000 kPa | 775.4 ± 0.9 | 772.1 ± 0.9 | 761.3 ± 1 | 747 ± 1 | 733.1 ± 1 | 719.5 ± 1 | 705.9 ± 1.1
65000 kPa | 778.6 ± 1 | 775.4 ± 1 | 764.8 ± 1 | 750.8 ± 1 | 737.2 ± 1 | 723.9 ± 1.1 | 710.6 ± 1.1
70000 kPa | 781.7 ± 1 | 778.5 ± 1 | 768.1 ± 1 | 754.3 ± 1 | 741.1 ± 1.1 | 728.1 ± 1.1 | 715.1 ± 1.1
80000 kPa | 787.6 ± 1 | 784.5 ± 1 | 774.3 ± 1 | 761.2 ± 1.1 | 748.4 ± 1.1 | 735.9 ± 1.1 | 723.5 ± 1.2
90000 kPa | 793.2 ± 1.1 | 790.3 ± 1.1 | 780.4 ± 1.1 | 767.7 ± 1.1 | 755.3 ± 1.2 | 743.2 ± 1.2 | 731.3 ± 1.2
100000 kPa | 798.5 ± 1.1 | 795.6 ± 1.1 | 786 ± 1.1 | 773.6 ± 1.2 | 761.6 ± 1.2 | 750 ± 1.2 | 738.3 ± 1.3
110000 kPa | 803.6 ± 1.1 | 800.8 ± 1.1 | 791.4 ± 1.2 | 779.3 ± 1.2 | 767.7 ± 1.3 | 756.3 ± 1.3 | 745.2 ± 1.3
120000 kPa | 808.4 ± 1.2 | 805.6 ± 1.2 | 796.4 ± 1.2 | 784.6 ± 1.3 | 773.4 ± 1.3 | 762.3 ± 1.3 | 751.3 ± 1.4
130000 kPa | 812.9 ± 1.2 | 810.3 ± 1.2 | 801.3 ± 1.3 | 789.8 ± 1.3 | 778.8 ± 1.3 | 768 ± 1.4 | 757.4 ± 1.4
140000 kPa | 817.3 ± 1.2 | 814.6 ± 1.3 | 806 ± 1.3 | 794.7 ± 1.3 | 784 ± 1.4 | 773.3 ± 1.4 | 763 ± 1.5
